Test results taken from patent US20250289793A1, “MACROCYCLIC INHIBITORS OF ATP CITRATE LYASE” (Esperion Therapeutics, Inc., priority 2022, published 2025).

Assays:
[1] = biological target: T1, ACLY (Homo sapiens (Human), UniProt P53396); experiment: Human ACLY (hACLY) RF/MS activity assay; assay type: biochemical; conditions: 1 nM hACLY; 30 min pre-incubation; 15 μM Coenzyme A, 50 μM ATP, 50 μM citrate; CoA to Acetyl-CoA by RF/MS; read-out: RFMS IC50 GMean
Protocol: Compounds of the disclosure were evaluated for their efficacy in inhibiting hACLY using rapid fire mass spectrometry (RF/MS).
The final reaction volume for each compound was 20 μl and consisted of buffer (50 mM Hepes pH 8.0, 10 mM MgCl2, 0.003% BSA, 0.01% Brij35, 50 mM NaCl, 4 mM DTT) and 1 nM hACLY, EV12992, PP6692) using Greiner, 384 well small volume, deep well plates (Cat #784201). A two-fold dilution series with a top concentration of 10 μM was used to record a concentration response curve. Both the substrate (CoA) and product (Acetyl-CoA) were quantified, and given a ratio. […] The final DMSO-concentration was 1% (v/v). Compounds were pre-incubated for 30 min with the buffered enzyme solution at RT (20° C.), and substrate solution was added (final concentrations: 15 μM Coenzyme A, 50 μM ATP and 50 μM citrate) to initiate the enzyme reaction. The enzyme reaction was incubated for additional 30 min at RT. The reaction was quenched upon addition of 40 μl of 5% Formic acid in H2O and centrifuged (4350 rpm at 20° C. for 10 min).
Product formation was quantified using a RF/MS-based method based on mass change of CoA (substrate) to Acetyl-CoA (product).

[2] = biological target: T1, ACLY; experiment: InCell Pulse assay (permeate HEK293 cells, bind to and stabilize ACLY); assay type: cell-based; conditions: HEK293 cells transfected with pICP-ACLY(FL)-ePL; 1 hour at 37° C., 55° C. heat pulse 10 minutes; read-out: InCell Pulse IC50 GMean
Protocol: HEK293 cells transfected for 24 hours with pICP-ACLY(FL)-ePL (3 μg DNA per T25 flask) using FuGene HD (Promega Corp.) were harvested and cryopreserved. On the day of the assay, the frozen transfected cells were thawed at 37° C., and the storage medium (DMEM with 2 mM L-Glutamine, 10% FBS and a final concentration of DMSO 10%) was exchanged with assay medium (OptiMEM; Gibco™, ThermoFischer Scientific). Compounds were 3-fold serially diluted in DMSO over 11-point concentration range. 100 nL of the corresponding dilutions were spotted into the assay plate (Greiner AG; 384 Well, PP, Small Volume, Deep Well, Natural, cat. no. 784201) followed by the addition of 20 μL of cell suspension adjusted with assay medium to 7.5E4 cells/mL. Subsequently, the plates were sealed and incubated for 1 hour at 37° C. Afterwards, the plates were fixed upside down in a rack and incubated in a 55° C. water bath for 10 minutes. Following this heat pulse step, plates were allowed to reach room temperature for 10 minutes and centrifuged for a few seconds at 1000 rpm and room temperature. 25 μL EA detection solution (working solution: 0.0167× InCell EA Reagent, 0.15× InCell Dilution Buffer, 0.167× InCell Lysis Buffer; 0.667× InCell Substrate Reagent; InCell Hunter Detection kit; Eurofins DiscoverX; cat. no. 96-0079) were added to each well. Afterwards, 42 μL were transferred from the assay plate to the detection plate (Corning Inc., 384-well Low Flange Black Flat Bottom Polystyrene NBS Microplate, cat. no. 3575), followed by an incubation for 1 hour at room temperature, a centrifugation step for 1 minute at 1000 rpm and the detection of the luminescence signal using an EnVision microplate reader (Perkin Elmer Inc.). Concentration-response curve-fitting and IC50 determination was performed using Evotec's in-house evaluation software APlus with a four-parameter non-linear regression fit model. Data was normalized to 0.5% (final concentration) DMSO as low/negative control and 1 μM (final concentration) NDI-094311 as high/positive control.

T1 sequence (P53396 whole entry): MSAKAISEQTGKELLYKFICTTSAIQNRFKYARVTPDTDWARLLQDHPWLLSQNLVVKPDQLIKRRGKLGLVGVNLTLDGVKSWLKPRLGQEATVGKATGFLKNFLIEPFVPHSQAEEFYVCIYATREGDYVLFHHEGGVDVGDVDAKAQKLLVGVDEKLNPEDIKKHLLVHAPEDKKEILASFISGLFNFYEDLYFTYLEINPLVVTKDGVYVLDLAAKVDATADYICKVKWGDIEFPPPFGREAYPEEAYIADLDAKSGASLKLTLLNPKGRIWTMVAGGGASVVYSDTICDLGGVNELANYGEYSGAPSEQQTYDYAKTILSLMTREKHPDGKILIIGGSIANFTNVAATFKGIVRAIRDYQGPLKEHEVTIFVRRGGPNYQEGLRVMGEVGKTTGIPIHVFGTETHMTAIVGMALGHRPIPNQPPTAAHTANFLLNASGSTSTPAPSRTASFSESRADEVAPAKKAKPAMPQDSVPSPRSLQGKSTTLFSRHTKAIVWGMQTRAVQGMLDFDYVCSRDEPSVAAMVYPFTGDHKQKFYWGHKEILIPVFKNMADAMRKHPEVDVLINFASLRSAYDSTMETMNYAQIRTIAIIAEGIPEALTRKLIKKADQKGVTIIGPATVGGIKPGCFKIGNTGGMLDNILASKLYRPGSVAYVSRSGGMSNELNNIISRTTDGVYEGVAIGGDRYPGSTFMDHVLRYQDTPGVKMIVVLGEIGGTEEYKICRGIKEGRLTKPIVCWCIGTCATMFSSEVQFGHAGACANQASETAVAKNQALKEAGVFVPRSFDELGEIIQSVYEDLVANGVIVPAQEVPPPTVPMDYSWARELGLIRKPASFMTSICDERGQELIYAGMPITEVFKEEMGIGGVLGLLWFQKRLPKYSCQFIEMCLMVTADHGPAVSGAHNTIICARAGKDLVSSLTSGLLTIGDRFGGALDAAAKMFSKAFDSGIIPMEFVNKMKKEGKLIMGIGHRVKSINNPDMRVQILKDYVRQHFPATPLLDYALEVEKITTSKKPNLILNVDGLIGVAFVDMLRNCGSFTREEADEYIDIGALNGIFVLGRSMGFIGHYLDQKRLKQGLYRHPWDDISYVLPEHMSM

IC50 [1] [nM]	IC50 [2] [nM]	Compound
< 20	300 to 1000	O=S1(=O)Nc2cc(c(F)cc2F)-c2ccccc2OCCOCc2cc(Cl)c(O)c1c2 [Compound 67, 15-chloro-21,23-difluoro-18,18-dioxo-8,11-dioxa-18λ6-thia-19-azatetracyclo[18.3.1.113,17.02,7]pentacosa-1(23),2(7),3,5,13,15,17(25),20(24),21-nonaen-16-ol]
≥ 10000	≥ 50000	Nc1cc2cc(n1)S(=O)(=O)Nc1cc(c(F)cc1F)-c1ccccc1OCCOC2=O [Compound 63, 15-amino-21,23-difluoro-18,18-dioxo-8,11-dioxa-18λ6-thia-16,19-diazatetracyclo[18.3.1.113,17.02,7]pentacosa-1(23),2(7),3,5,13,15,17(25),20(24),21-nonaen-12-one]
< 20	< 300	O=C1OCc2ccccc2-c2cc(F)c(F)c(c2)NS(=O)(=O)c2cc1cc(Cl)c2O [Compound 82, 13-chloro-19,20-difluoro-14-hydroxy-16,16-dioxo-9-oxa-16λ6-thia-17-azatetracyclo[16.3.1.111,15.02,7]tricosa-1(21),2,4,6,11(23),12,14,18(22),19-nonaen-10-one]
< 20	< 300	Cc1cc(F)c2cc1-c1ccccc1OCCOC(=O)c1cc(Cl)c(O)c(c1)S(=O)(=O)N2 [Compound 50, 15-chloro-21-fluoro-16-hydroxy-23-methyl-18,18-dioxo-8,11-dioxa-18λ6-thia-19-azatetracyclo[18.3.1.113,17.02,7]pentacosa-1(23),2(7),3,5,13(25),14,16,20(24),21-nonaen-12-one]
≥ 10000	≥ 50000	O=C1NCCOc2ccccc2-c2cc(c(F)cc2F)NC(=O)c2cc1ccc2O [Compound 12, 21,23-difluoro-16-hydroxy-8-oxa-11,19-diazatetracyclo[18.3.1.1^13,17.0^2,7]pentacosa-1(23),2,4,6,13,15,17(25),20(24),21-nonaene-12,18-dione]
20 to 100	≥ 50000	O=C1OCCCc2c(sc3ccccc23)-c2cc(c(F)cc2F)NS(=O)(=O)c2cc1cc(Cl)c2O [Compound 22, 18-chloro-24,26-difluoro-19-hydroxy-14-oxa-3,21lambda6-dithia-22-azapentacyclo[21.3.1.1^16,20.0^2,10.0^4,9]octacosa-1(27),2(10),4,6,8,16,18,20(28),23,25-decaene-15,21,21-trione]
100 to 10000	≥ 50000	O=C1OCc2cccc(c2)Oc2cc(c(F)cc2F)NS(=O)(=O)c2cc1cc(Cl)c2O [Compound 34, 12-chloro-4,6-difluoro-11-hydroxy-9,9-dioxo-2,16-dioxa-9λ6-thia-8-azatetracyclo[16.3.1.13,7.110,14]tetracosa-1(22),3,5,7(24),10(23),11,13,18,20-nonaen-15-one]
20 to 100	1000 to 50000	O=C1OCCOc2ccccc2-c2ccc(C3CC3)c(c2)NS(=O)(=O)c2cc1cc(Cl)c2O [Compound 57, 15-chloro-21-cyclopropyl-16-hydroxy-18,18-dioxo-8,11-dioxa-18λ6-thia-19-azatetracyclo[18.3.1.113,17.02,7]pentacosa-1(23),2(7),3,5,13(25),14,16,20(24),21-nonaen-12-one]
< 20	300 to 1000	COc1ccc2cc1NS(=O)(=O)c1cc(cc(Cl)c1O)C(=O)OCCOc1ccccc1-2 [Compound 26, 15-chloro-16-hydroxy-21-methoxy-8,11-dioxa-18lambda6-thia-19-azatetracyclo[18.3.1.1^13,17.0^2,7]pentacosa-1(24),2,4,6,13,15,17(25),20,22-nonaene-12,18,18-trione]
20 to 100	1000 to 50000	O=C1NCCc2ccccc2-c2cc(c(F)cc2F)NS(=O)(=O)c2cc1cc(Cl)c2O [Compound 30, 14-chloro-20,22-difluoro-15-hydroxy-17lambda6-thia-10,18-diazatetracyclo[17.3.1.1^12,16.0^2,7]tetracosa-1(23),2,4,6,12,14,16(24),19,21-nonaene-11,17,17-trione]
≥ 10000	≥ 50000	O=C1OCCOc2ccccc2-c2cc(c(F)cc2F)NS(=O)(=O)c2cc1ccc2C(F)F [Compound 60, 16-(difluoromethyl)-21,23-difluoro-18,18-dioxo-8,11-dioxa-18λ6-thia-19-azatetracyclo[18.3.1.113,17.02,7]pentacosa-1(23),2(7),3,5,13(25),14,16,20(24),21-nonaen-12-one]
100 to 10000	< 300	O=C1OCc2ccccc2-c2ccc(F)c(c2)NS(=O)(=O)c2cc1cc(Cl)c2O [Compound 84, 13-chloro-19-fluoro-14-hydroxy-16,16-dioxo-9-oxa-16λ6-thia-17-azatetracyclo[16.3.1.111,15.02,7]tricosa-1(21),2(7),3,5,11(23),12,14,18(22),19-nonaen-10-one]
100 to 10000	< 300	O=S1(=O)Nc2cc(ccc2F)-c2ccccc2CCOCc2cc(Cl)c(O)c1c2 [Compound 69, 14-chloro-20-fluoro-17,17-dioxo-10-oxa-17λ6-thia-18-azatetracyclo[17.3.1.112,16.02,7]tetracosa-1(23),2,4,6,12,14,16(24),19,21-nonaen-15-ol]
< 20	< 300	O=C1OCc2ccc(F)cc2-c2cc(F)c(F)c(c2)NS(=O)(=O)c2cc1cc(Cl)c2O [Compound 83, 13-chloro-4,19,20-trifluoro-14-hydroxy-16,16-dioxo-9-oxa-16λ6-thia-17-azatetracyclo[16.3.1.111,15.02,7]tricosa-1(21),2,4,6,11,13,15(23),18(22),19-nonaen-10-one]
100 to 10000	≥ 50000	O=C1OCCOc2ccccc2-c2ccc(F)c(c2F)NS(=O)(=O)c2cc1cc(Cl)c2O [Compound 51, 15-chloro-21,24-difluoro-16-hydroxy-18,18-dioxo-8,11-dioxa-18λ6-thia-19-azatetracyclo[18.3.1.113,17.02,7]pentacosa-1(23),2(7),3,5,13(25),14,16,20(24),21-nonaen-12-one]
< 20	< 300	O=C1OCCc2ccccc2-c2cc(c(F)cc2F)NS(=O)(=O)c2cc1cc(Cl)c2O [Compound 21, 14-chloro-20,22-difluoro-15-hydroxy-10-oxa-17lambda6-thia-18-azatetracyclo[17.3.1.1^12,16.0^2,7]tetracosa-1(23),2,4,6,12,14,16(24),19,21-nonaene-11,17,17-trione]
< 20	1000 to 50000	O=S1(=O)Nc2cc(c(F)cc2F)-c2ccccc2OCCn2cnnc2-c2cc(Cl)c(O)c1c2 [Compound 77, 25-chloro-17,19-difluoro-22,22-dioxo-9-oxa-2λ6-thia-3,4,6,21-tetrazapentacyclo[21.3.1.116,20.02,6.010,15]octacosa-1(26),2,4,10,12,14,16(28),17,19,23(27),24-undecaen-24-ol]
< 20	< 300	O=C1OCCOc2cc(F)ccc2-c2ccc(F)c(c2)NS(=O)(=O)c2cc1cc(Cl)c2O [Compound 48, 15-chloro-5,21-difluoro-16-hydroxy-18,18-dioxo-8,11-dioxa-18λ6-thia-19-azatetracyclo[18.3.1.113,17.02,7]pentacosa-1(23),2(7),3,5,13(25),14,16,20(24),21-nonaen-12-one]
≥ 10000	≥ 50000	Cn1cc2cc(c1=O)S(=O)(=O)Nc1cc(c(F)cc1F)-c1ccccc1OCCOC2=O [Compound 35, 21,23-difluoro-15-methyl-18,18-dioxo-8,11-dioxa-18λ6-thia-15,19-diazatetracyclo[18.3.1.113,17.02,7]pentacosa-1(23),2(7),3,5,13,17(25),20(24),21-octaene-12,16-dione]
